In patent publication US20070010670A1, “Nitrogen-containing fused ring compounds and use thereof” (Japan Tobacco Inc., priority 2004, published 2007):

molecular target: T1, CYP2C9 (Homo sapiens, UniProt P11712); test: CYP inhibitory test using human liver microsome; type: in vitro ADME; settings: model substrate diclofenac, 37° C. 10 min, read-out: CYP2C9 inhibition IC50
T1 construct: Human liver microsome (20 mg protein/mL, 5 μL, Xenotech LLC, purchased from Lenexa KS); tissue Xenotech LLC; host or cells: human liver microsome
Protocol: Human liver microsome (20 mg protein/mL, 5 μL, Xenotech LLC, purchased from Lenexa KS) was suspended in 100 mM potassium phosphate buffer (70 μL, pH 7.4), mixed with a solution (0.5 μL) of the Example compound dissolved in DMSO and preincubated at 37° C. for 5 min. NADPH producing system coenzyme solution (β-nicotinamide adenine dinucleotide phosphate: 5.2 mM, D-glucose-6-phosphate: 13.2 mM, magnesium chloride: 13.2 mM, glucose-6-phosphate dehydrogenase: 1.8 U/mL) 25 μL, and a model substrate (CYP3A4: midazolam 1 mM, CYP2D6: bufuralol 1 mM, CYP2C9: diclofenac 2 mM) 0.5 μL dissolved in DMSO were added to start the reaction. After incubation at 37° C. for 10 min., acetonitrile (200 μL) containing an internal standard substance (propranolol 1 μM) was added and the mixture was centrifuged (room temperature, 3000 rpm, 20 min). The amount of the metabolite produced from each model substrate in the supernatant was measured by high performance liquid chromatography/mass spectrometry (LC/MS/MS) and each CYP enzyme activity was determined. The concentration showing 50% inhibition (IC50) was calculated relative to the enzyme activity without addition of Example compound (DMSO 0.5 μL added) as 100%.

T1 sequence (P11712 whole entry): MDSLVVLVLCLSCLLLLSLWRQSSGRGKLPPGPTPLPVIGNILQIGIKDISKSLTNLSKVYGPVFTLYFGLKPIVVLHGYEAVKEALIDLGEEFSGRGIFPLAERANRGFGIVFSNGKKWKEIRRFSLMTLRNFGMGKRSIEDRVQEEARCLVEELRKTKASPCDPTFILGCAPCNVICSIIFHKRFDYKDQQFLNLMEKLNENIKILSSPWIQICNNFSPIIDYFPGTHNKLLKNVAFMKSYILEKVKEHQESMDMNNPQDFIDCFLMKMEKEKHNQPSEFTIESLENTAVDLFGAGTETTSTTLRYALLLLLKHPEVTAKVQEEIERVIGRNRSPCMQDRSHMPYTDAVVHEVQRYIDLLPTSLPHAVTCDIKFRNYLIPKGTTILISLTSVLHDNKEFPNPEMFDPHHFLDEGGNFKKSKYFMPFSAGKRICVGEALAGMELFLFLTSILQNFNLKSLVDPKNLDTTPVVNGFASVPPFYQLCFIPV

Row | IC50 [µM] | SMILES
1 | 16 | Cc1cccc2c1N(C(=O)c1cc(Cl)c(O)c(Cl)c1)CCO2 [Example 14, (3,5-dichloro-4-hydroxyphenyl)-(5-methyl-2,3-dihydrobenzo[1,4]oxazin-4-yl)-methanone]
2 | 6 | O=C(c1cc(Cl)c(O)c(Cl)c1)N1CCN(C(=O)c2cc(Cl)c(O)c(Cl)c2)c2ccccc21 [Example 53, [4-(3,5-dichloro-4-hydroxybenzoyl)-3,4-dihydro-2H-quinoxalin-1-yl]-(3,5-dichloro-4-hydroxyphenyl)-methanone]
3 | > 50 | O=C(c1ccc(Cl)c(O)c1)N1CCOc2ccccc21 [Example 41, (4-chloro-3-hydroxyphenyl)-(2,3-dihydrobenzo[1,4]oxazin-4-yl)-methanone]
4 | 31 | CC(=O)Oc1c(Cl)cc(C(=O)N2CCOc3ccccc32)cc1Cl [Example 87, 2,6-dichloro-4-(2,3-dihydrobenzo[1,4]oxazine-4-carbonyl)-phenyl acetate]
5 | 21 | COC(=O)c1cccc2c1N(C(=O)c1cc(Cl)c(O)c(Cl)c1)CCO2 [Example 58, methyl 4-(3,5-dichloro-4-hydroxybenzoyl)-3,4-dihydro-2H-benzo[1,4]oxazine-5-carboxylate]
6 | 43 | COC(=O)c1cccc2c1OCCN2C(=O)c1cc(Cl)c(O)c(Cl)c1 [Example 61, methyl 4-(3,5-dichloro-4-hydroxybenzoyl)-3,4-dihydro-2H-benzo[1,4]oxazine-8-carboxylate]
7 | 13 | O=C(c1cc(Cl)c(O)c(Cl)c1)N1CCCc2ccccc21 [Example 26, (3,5-dichloro-4-hydroxyphenyl)-(3,4-dihydro-2H-quinolin-1-yl)-methanone]
8 | 9 | COc1ccc2c(c1)OCCN2C(=O)c1cc(Cl)c(O)c(Cl)c1 [Example 18, (3,5-dichloro-4-hydroxyphenyl)-(7-methoxy-2,3-dihydrobenzo[1,4]oxazin-4-yl)-methanone]
9 | 1 | O=S(=O)(c1cc(Cl)c(O)c(Cl)c1)N1CCOc2ccccc21 [Example 22, 2,6-dichloro-4-(2,3-dihydrobenzo[1,4]oxazine-4-sulfonyl)phenol]
10 | 17 | CCN(CC)S(=O)(=O)c1ccc2c(c1)N(C(=O)c1cc(Cl)c(O)c(Cl)c1)CCO2 [Example 21, 4-(3,5-dichloro-4-hydroxybenzoyl)-3,4-dihydro-2H-benzo[1,4]oxazine-6-sulfonic acid diethylamide]
11 | > 50 | O=C(O)c1cccc(C(=O)N2CCOc3ccccc32)c1 [Example 49, 3-(2,3-dihydrobenzo[1,4]oxazine-4-carbonyl)benzoic acid]
12 | 16 | O=C(c1cc(Cl)c(O)c(Cl)c1)N1CCOc2cccnc21 [Example 36, (3,5-dichloro-4-hydroxyphenyl)-(2,3-dihydropyrido[3,2-b][1,4]oxazin-4-yl)-methanone]
13 | > 50 | COC(=O)c1cccc(C(=O)N2CCOc3ccccc32)c1 [Example 48, methyl 3-(2,3-dihydrobenzo[1,4]oxazine-4-carbonyl)benzoate]
14 | 15 | O=C(c1cc(Cl)c(O)c(Cl)c1O)N1CCOc2ccccc21 [Example 50, (3,5-dichloro-2,4-dihydroxyphenyl)-(2,3-dihydrobenzo[1,4]oxazin-4-yl)-methanone]
15 | 13 | CS(=O)(=O)Nc1ccc2c(c1)OCCN2C(=O)c1cc(Cl)c(O)c(Cl)c1 [Example 72, N-[4-(3,5-dichloro-4-hydroxybenzoyl)-3,4-dihydro-2H-benzo[1,4]oxazin-7-yl]-methanesulfonamide]
16 | 14 | O=C(c1cc(Cl)c(O)c(Cl)c1)N1CCOc2ccc(-c3ccccc3)cc21 [Example 65, (3,5-dichloro-4-hydroxyphenyl)-(6-phenyl-2,3-dihydrobenzo[1,4]oxazin-4-yl)-methanone]
17 | > 50 | O=C(c1cc(Cl)nc(Cl)c1)N1CCOc2ccccc21 [Example 42, (2,6-dichloropyridin-4-yl)-(2,3-dihydrobenzo[1,4]oxazin-4-yl)-methanone]
18 | 12 | Cc1cc(C)c2c(c1)N(C(=O)c1cc(Cl)c(O)c(Cl)c1)CCO2 [Example 66, (3,5-dichloro-4-hydroxyphenyl)-(6,8-dimethyl-2,3-dihydrobenzo[1,4]oxazin-4-yl)-methanone]
19 | 4 | O=C(c1cc(Cl)c(O)c(Cl)c1)N1CCOc2ccc(S(=O)(=O)N3CCCC3)cc21 [Example 33, (3,5-dichloro-4-hydroxyphenyl)-[6-(pyrrolidine-1-sulfonyl)-2,3-dihydrobenzo[1,4]oxazin-4-yl]-methanone]
20 | > 50 | O=C1CCN(C(=O)c2cc(Cl)c(O)c(Cl)c2)c2ccccc2N1 [Example 37, 5-(3,5-dichloro-4-hydroxybenzoyl)-1,3,4,5-tetrahydrobenzo[b][1,4]diazepin-2-one]

Row | IC50 [µM] | SMILES
21 | > 50 | NS(=O)(=O)c1ccc2c(c1)N(C(=O)c1cc(Cl)c(O)c(Cl)c1)CCO2 [Example 25, 4-(3,5-dichloro-4-hydroxybenzoyl)-3,4-dihydro-2H-benzo[1,4]oxazine-6-sulfonamide]
22 | 9 | O=C(c1cc(Br)c(O)c(Br)c1)N1CCOc2ccccc21 [Example 4, (3,5-dibromo-4-hydroxyphenyl)-(2,3-dihydrobenzo[1,4]oxazin-4-yl)-methanone]
23 | > 50 | O=C(O)c1cccc2c1OCCN2C(=O)c1cc(Cl)c(O)c(Cl)c1 [Example 62, 4-(3,5-dichloro-4-hydroxybenzoyl)-3,4-dihydro-2H-benzo[1,4]oxazine-8-carboxylic acid]
24 | 48 | O=C(c1cc(Cl)c(O)c(Cl)c1)N1CCNc2ccccc21 [Example 54, (3,5-dichloro-4-hydroxyphenyl)-(3,4-dihydro-2H-quinoxalin-1-yl)-methanone]
25 | 5 | O=C(c1cc(Cl)cc(Cl)c1O)N1CCOc2ccccc21 [Example 38, (3,5-dichloro-2-hydroxyphenyl)-(2,3-dihydrobenzo[1,4]oxazin-4-yl)-methanone]
26 | 21 | O=C(c1cc(Cl)c(O)c(Cl)c1)N1CCOc2c(O)cccc21 [Example 90, (3,5-dichloro-4-hydroxyphenyl)-(8-hydroxy-2,3-dihydrobenzo[1,4]oxazin-4-yl)-methanone]
27 | 27 | O=C(c1cc(Cl)c(O)c(Cl)c1)N1CCOc2ccccc21 [Example 3, (3,5-dichloro-4-hydroxyphenyl)-(2,3-dihydrobenzo[1,4]oxazin-4-yl)-methanone]
28 | 31 | O=C(c1cc(Cl)c(O)c(Cl)c1)N1CCOc2ccc(F)cc21 [Example 44, (3,5-dichloro-4-hydroxyphenyl)-(6-fluoro-2,3-dihydrobenzo[1,4]oxazin-4-yl)-methanone]
29 | > 50 | O=C(c1cc(Cl)cc(Cl)c1)N1CCOc2ccccc21 [Example 63, (3,5-dichlorophenyl)-(2,3-dihydrobenzo[1,4]oxazin-4-yl)-methanone]
30 | 15 | CCS(=O)(=O)c1ccc2c(c1)N(C(=O)c1cc(Cl)c(O)c(Cl)c1)CCO2 [Example 84, (3,5-dichloro-4-hydroxyphenyl)-(6-ethanesulfonyl-2,3-dihydrobenzo[1,4]oxazin-4-yl)-methanone]
31 | 11 | O=C(c1cc(Cl)c(O)c(Cl)c1)N1CCOc2cc(Cl)ccc21 [Example 52, (7-chloro-2,3-dihydrobenzo[1,4]oxazin-4-yl)-(3,5-dichloro-4-hydroxyphenyl)-methanone]
32 | 13 | O=C(c1cc(Cl)c(O)c(Cl)c1)N1CCOc2cc(O)ccc21 [Example 20, (3,5-dichloro-4-hydroxyphenyl)-(7-hydroxy-2,3-dihydrobenzo[1,4]oxazin-4-yl)-methanone]
33 | > 50 | CS(=O)(=O)N1CCN(C(=O)c2cc(Cl)c(O)c(Cl)c2)c2ccccc21 [Example 83, (3,5-dichloro-4-hydroxyphenyl)-(4-methanesulfonyl-3,4-dihydro-2H-quinoxalin-1-yl)-methanone]
34 | > 50 | O=C(c1cc(Cl)c(O)c(Cl)c1)N1CCS(=O)(=O)c2ccccc21 [Example 10, (3,5-dichloro-4-hydroxyphenyl)-(1,1-dioxo-2,3-dihydro-1H-1λ^6-benzo[1,4]thiazin-4-yl)-methanone]
35 | > 50 | O=C(c1cc(Cl)c(O)c(Cl)c1)N1CCOc2ccc(CO)cc21 [Example 56, (3,5-dichloro-4-hydroxyphenyl)-(6-hydroxymethyl-2,3-dihydrobenzo[1,4]oxazin-4-yl)-methanone]
36 | 4 | Cc1cc(C(=O)N2CCOc3ccccc32)cc(C)c1O [Example 7, (2,3-dihydrobenzo[1,4]oxazin-4-yl)-(4-hydroxy-3,5-dimethylphenyl)-methanone]
37 | 37 | O=C(c1ccc(O)c(Br)c1)N1CCOc2ccccc21 [Example 2, (3-bromo-4-hydroxyphenyl)-(2,3-dihydrobenzo[1,4]oxazin-4-yl)-methanone]
38 | 6 | O=C(c1cc(Cl)c(O)c(Cl)c1)N1c2ccccc2Oc2ccccc21 [Example 64, (3,5-dichloro-4-hydroxyphenyl)-phenoxazin-10-ylmethanone]
39 | > 50 | O=C(c1ccc(O)c([N+](=O)[O-])c1)N1CCOc2ccccc21 [Example 75, (2,3-dihydrobenzo[1,4]oxazin-4-yl)-(4-hydroxy-3-nitrophenyl)-methanone]
40 | 22 | Cc1ccc2c(c1)N(C(=O)c1cc(Cl)c(O)c(Cl)c1)CCO2 [Example 12, (3,5-dichloro-4-hydroxyphenyl)-(6-methyl-2,3-dihydrobenzo[1,4]oxazin-4-yl)-methanone]
